The text below walks through data of publication PMC4032265 (PLoS ONE, 2014).

One may read the inhibition as the percentage by which the read-out fell short of the control. Broadly, the Ki is a dissociation constant, usually derived from enzyme kinetics or from competition with a known ligand. What is called % inhibition is the drop in the measured response relative to a control, in per cent. A lower % inhibition goes with a response near the control.

Data set [1] has as its target T1, M5 muscarinic acetylcholine receptor (Homo sapiens, UniProt P08912).
T1 sequence (P08912 1-532): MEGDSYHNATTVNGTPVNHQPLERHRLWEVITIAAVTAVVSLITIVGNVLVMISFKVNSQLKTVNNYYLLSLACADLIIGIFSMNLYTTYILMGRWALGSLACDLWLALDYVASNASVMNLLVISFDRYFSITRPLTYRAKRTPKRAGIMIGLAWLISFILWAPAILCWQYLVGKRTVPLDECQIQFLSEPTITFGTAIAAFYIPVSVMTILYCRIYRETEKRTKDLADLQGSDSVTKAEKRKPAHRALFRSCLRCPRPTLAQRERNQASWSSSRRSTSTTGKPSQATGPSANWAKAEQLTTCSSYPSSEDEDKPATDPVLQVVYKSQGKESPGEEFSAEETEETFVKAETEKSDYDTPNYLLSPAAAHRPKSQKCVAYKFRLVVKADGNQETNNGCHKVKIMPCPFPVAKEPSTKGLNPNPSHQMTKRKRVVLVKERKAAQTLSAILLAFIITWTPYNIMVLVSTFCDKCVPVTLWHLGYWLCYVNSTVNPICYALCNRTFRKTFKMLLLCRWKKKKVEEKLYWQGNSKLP
The data set is described as follows: PDSP radioligand binding, M5. The following applies: read-out: % inhibition at 10 µM.

Data set [2] concerns the target T2, α2A adrenergic receptor (Homo sapiens, UniProt P08913).
T2 sequence (P08913 1-465): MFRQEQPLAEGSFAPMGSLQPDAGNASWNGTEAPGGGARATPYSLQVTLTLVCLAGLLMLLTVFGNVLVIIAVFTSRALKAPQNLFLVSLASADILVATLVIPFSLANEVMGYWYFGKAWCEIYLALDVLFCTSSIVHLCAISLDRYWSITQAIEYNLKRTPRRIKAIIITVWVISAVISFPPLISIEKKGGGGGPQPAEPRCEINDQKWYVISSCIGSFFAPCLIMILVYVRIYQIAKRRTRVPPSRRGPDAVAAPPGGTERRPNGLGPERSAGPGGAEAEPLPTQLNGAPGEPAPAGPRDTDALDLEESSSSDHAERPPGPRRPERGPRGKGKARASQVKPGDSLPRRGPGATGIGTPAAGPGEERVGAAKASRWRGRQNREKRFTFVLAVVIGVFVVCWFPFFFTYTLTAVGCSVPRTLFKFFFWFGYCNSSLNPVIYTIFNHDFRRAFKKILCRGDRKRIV
Put plainly: PDSP radioligand binding, α2A. The following applies: for Ki: full concentration-response curves, n = 3-6 unless noted; for inhibition at 10 µM: read-out: % inhibition at 10 µM.

Data set [3] deals with H4 histaminergic receptor (Homo sapiens, UniProt Q9H3N8). The data set is described as follows: PDSP radioligand binding, H4. Conditions: read-out: % inhibition at 10 µM.
Data set [4] deals with T3, D4 dopaminergic receptor (Homo sapiens, UniProt P21917).
T3 sequence (P21917 1-419): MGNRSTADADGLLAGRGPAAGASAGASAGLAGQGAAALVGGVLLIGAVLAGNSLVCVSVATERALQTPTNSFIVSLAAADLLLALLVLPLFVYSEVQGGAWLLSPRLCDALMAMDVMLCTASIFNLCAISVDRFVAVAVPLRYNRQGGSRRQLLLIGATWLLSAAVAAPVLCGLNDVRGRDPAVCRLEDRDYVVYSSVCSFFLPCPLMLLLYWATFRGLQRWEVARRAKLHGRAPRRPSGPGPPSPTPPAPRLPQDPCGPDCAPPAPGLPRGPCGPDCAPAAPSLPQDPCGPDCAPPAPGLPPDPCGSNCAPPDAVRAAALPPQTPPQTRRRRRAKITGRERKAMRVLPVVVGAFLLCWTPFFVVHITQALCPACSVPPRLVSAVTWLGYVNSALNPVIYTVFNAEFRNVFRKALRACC
The data set is described as follows: PDSP radioligand binding, D4. The following applies: read-out: % inhibition at 10 µM.

Data set [5] deals with T4, 5HT2C serotonergic receptor (Homo sapiens, UniProt P28335).
T4 sequence (P28335 33-458): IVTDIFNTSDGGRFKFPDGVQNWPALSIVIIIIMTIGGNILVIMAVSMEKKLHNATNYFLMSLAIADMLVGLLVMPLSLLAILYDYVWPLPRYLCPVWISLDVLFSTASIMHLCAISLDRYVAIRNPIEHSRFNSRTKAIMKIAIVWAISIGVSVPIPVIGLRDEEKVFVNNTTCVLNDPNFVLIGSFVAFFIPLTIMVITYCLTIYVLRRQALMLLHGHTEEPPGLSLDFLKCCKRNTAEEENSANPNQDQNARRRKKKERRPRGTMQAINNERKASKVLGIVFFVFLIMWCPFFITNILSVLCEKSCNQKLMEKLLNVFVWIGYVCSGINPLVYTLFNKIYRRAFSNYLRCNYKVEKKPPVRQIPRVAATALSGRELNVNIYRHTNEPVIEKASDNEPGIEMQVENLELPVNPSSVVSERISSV
The data set is described as follows: PDSP radioligand binding, 5HT2C. Conditions: for Ki: full concentration-response curves, n = 3-6 unless noted; for inhibition at 10 µM: read-out: % inhibition at 10 µM.

Data set [6] addresses hERG potassium channel (Homo sapiens, UniProt Q12809). Put plainly: PDSP hERG functional assay. Type of data set: cell-based. Conditions: for inhibition at 10 µM: human; for Ki: not binding. (In general: hERG is a cardiac potassium channel; its block is linked to QT prolongation.)
Data set [7] addresses D1 dopaminergic receptor (Homo sapiens, UniProt P21728). Put plainly: PDSP radioligand binding, D1. Conditions: read-out: % inhibition at 10 µM.
Data set [8] has as its target T5, α2C adrenergic receptor (Homo sapiens, UniProt P18825).
T5 sequence (P18825 1-462): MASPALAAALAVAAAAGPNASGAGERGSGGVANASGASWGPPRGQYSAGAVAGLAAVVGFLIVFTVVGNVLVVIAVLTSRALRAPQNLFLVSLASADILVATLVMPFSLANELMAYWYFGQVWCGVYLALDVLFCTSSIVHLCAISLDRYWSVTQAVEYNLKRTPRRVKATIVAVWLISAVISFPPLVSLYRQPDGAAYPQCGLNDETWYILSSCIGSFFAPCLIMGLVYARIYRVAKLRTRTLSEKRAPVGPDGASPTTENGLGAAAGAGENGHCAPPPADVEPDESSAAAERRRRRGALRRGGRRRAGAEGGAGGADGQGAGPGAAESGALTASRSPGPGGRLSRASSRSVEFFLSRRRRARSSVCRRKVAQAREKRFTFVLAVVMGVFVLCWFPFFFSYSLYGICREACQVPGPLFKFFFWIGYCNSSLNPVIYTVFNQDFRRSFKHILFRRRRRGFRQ
The data set is described as follows: PDSP radioligand binding, α2C. The following applies: for Ki: full concentration-response curves, n = 3-6 unless noted; for inhibition at 10 µM: read-out: % inhibition at 10 µM.

“And” between values parts separate entries of the source, which are not always exact repeats. Identical values can stand only once. Like-named read-outs stand apart in the source and are kept apart here.

Chain of H4 histaminergic receptor (Q9H3N8 whole entry): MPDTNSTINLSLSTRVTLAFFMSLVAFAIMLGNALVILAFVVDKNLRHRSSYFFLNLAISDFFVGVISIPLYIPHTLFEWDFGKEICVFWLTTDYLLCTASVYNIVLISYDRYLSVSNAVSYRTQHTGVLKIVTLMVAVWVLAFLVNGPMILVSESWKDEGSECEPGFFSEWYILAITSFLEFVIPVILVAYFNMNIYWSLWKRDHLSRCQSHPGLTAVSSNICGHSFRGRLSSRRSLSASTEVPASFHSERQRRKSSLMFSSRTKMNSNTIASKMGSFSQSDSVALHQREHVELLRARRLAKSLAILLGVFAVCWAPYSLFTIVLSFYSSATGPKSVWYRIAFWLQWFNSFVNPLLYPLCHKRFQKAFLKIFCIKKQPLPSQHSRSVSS
Chain of D1 dopaminergic receptor (P21728 whole entry): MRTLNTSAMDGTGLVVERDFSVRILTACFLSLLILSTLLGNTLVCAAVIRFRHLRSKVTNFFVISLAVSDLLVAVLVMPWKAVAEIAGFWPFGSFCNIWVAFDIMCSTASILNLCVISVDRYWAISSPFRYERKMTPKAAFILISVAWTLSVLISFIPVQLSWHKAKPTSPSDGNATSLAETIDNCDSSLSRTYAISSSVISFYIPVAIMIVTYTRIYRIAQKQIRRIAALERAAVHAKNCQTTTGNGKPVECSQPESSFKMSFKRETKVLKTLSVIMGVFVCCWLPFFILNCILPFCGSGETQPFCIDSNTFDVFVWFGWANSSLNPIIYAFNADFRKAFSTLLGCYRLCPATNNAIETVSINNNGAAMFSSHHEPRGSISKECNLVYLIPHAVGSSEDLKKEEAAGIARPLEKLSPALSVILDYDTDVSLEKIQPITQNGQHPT
Chain of hERG potassium channel (Q12809 whole entry): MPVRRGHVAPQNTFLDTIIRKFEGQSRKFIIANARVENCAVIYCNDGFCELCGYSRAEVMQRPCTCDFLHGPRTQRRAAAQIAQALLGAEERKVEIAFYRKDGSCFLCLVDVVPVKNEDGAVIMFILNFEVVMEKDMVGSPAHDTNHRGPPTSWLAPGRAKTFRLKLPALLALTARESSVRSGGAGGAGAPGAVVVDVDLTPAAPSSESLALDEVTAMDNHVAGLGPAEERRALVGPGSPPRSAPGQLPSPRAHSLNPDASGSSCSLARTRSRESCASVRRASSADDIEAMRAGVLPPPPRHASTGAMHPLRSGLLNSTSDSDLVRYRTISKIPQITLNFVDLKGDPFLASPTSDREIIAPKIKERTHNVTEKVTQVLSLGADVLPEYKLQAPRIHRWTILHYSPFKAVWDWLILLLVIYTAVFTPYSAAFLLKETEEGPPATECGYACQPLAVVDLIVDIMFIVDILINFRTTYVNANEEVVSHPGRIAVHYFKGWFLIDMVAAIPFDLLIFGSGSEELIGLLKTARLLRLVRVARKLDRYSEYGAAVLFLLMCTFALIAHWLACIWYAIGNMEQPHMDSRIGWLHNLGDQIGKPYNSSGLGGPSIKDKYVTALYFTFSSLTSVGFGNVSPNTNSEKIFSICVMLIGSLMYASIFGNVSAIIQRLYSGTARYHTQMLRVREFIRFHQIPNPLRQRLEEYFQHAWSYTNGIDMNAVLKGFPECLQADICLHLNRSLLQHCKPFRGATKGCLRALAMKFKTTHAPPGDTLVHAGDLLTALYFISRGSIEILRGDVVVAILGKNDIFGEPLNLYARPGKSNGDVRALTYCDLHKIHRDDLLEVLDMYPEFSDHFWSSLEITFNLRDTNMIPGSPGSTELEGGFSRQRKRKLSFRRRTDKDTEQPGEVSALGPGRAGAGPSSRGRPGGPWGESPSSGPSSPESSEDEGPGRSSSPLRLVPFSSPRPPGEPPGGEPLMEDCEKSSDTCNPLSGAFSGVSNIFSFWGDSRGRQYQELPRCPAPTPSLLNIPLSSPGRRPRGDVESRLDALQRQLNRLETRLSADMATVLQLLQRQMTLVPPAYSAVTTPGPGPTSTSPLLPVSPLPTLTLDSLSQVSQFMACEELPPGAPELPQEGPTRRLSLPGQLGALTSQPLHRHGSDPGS

As to `CNC(=O)[C@@]12C[C@@H]1[C@@H](n1cnc3c(NCc4cccc(Cl)c4)nc(C#Cc4ccc(F)c(F)c4)nc31)[C@H](O)[C@@H]2O` [Compound 1], the inhibition at 10 µM is 2% in data set [1]; 19% in data set [2]; 17% in data set [3]; 0% in data set [4]; 20% in data set [5]; 43 ± 1.9% in data set [6] (single point 10 µM). The figures for the inhibition at 10 µM in data set [7] and in data set [8] were 13% and 63%, respectively. Also, the Ki in data set [2] came to 4.77 ± 1.43 µM; in data set [5], 7.19 ± 1.41 µM; in data set [6], 12.2 µM; in data set [8] it was 2.04 ± 0.95 µM.
`CNC(=O)[C@@]12C[C@@H]1[C@@H](n1cnc3c(NCc4cccc(Cl)c4)nc(C#Cc4ccc(F)cc4)nc31)[C@H](O)[C@@H]2O` [Compound 2]: the inhibition at 10 µM in data set [1] (single concentration 10 µM) stood at 9%; in data set [2] (single concentration 10 µM), 6%; in data set [3] (single concentration 10 µM), 28%; in data set [4] (single concentration 10 µM), 0%; in data set [5] (single concentration 10 µM), 16%; in data set [6] (single point 10 µM) it was 5.8 ± 11.9%. In addition, the inhibition at 10 µM worked out at 19% in data set [7] (single concentration 10 µM) and 48% in data set [8] (single concentration 10 µM). Also, the Ki in data set [6] was 39.5 µM; in data set [8] it was 3.64 ± 1.37 µM.
Take `CNC(=O)[C@@]12C[C@@H]1[C@@H](n1cnc3c(NCc4cccc(Cl)c4)nc(C#Cc4ccccc4Cl)nc31)[C@H](O)[C@@H]2O` [Compound 3]: the inhibition at 10 µM stood at 9% in data set [1] (single concentration 10 µM); 22% in data set [2] (single concentration 10 µM); 9% in data set [3] (single concentration 10 µM); 1% in data set [4] (single concentration 10 µM); 25% in data set [5] (single concentration 10 µM); 10.3 ± 4.9% in data set [6] (single point 10 µM). Besides, the inhibition at 10 µM came out at 27% in data set [7] (single concentration 10 µM) and 57% in data set [8] (single concentration 10 µM). In addition, the inhibitory constant (Ki) in data set [6] is 39.2 µM; in data set [8], 1.81 ± 0.25 µM.
Turning to `CNC(=O)[C@@]12C[C@@H]1[C@@H](n1cnc3c(NCc4cccc(Cl)c4)nc(Cl)nc31)[C@H](O)[C@@H]2O` [Compound 4], the inhibition at 10 µM in data set [1] (single concentration 10 µM) is 1%; in data set [2] (single concentration 10 µM), 26%; in data set [4] (single concentration 10 µM), 6%; in data set [5] (single concentration 10 µM) it was 95%; in data set [6] (single point 10 µM), 2%; in data set [7] (single concentration 10 µM), 11%. Also, the inhibition at 10 µM in data set [8] (single concentration 10 µM) is 11%. Moreover, the Ki in data set [5] was 0.12 µM and 0.122 µM.
Take `CNC(=O)[C@@]12C[C@@H]1[C@@H](n1cnc3c(NC)nc(C#Cc4ccc(F)c(F)c4)nc31)[C@H](O)[C@@H]2O` [Compound 5]: the inhibition at 10 µM in data set [1] (single concentration 10 µM) was 4%; in data set [2] (single concentration 10 µM), 0%; in data set [4] (single concentration 10 µM), 4%; in data set [5], 1%; in data set [7] (single concentration 10 µM), 0%; in data set [8] (single concentration 10 µM) it was 13%. The same compound registered a Ki in data set [6] of 7.93 µM.
Consider `O[C@@H]1[C@H](O)[C@@H]2C[C@@H]2[C@H]1n1cnc2c(NCc3cccc(Cl)c3)nc(C#Cc3ccc(F)c(F)c3)nc21` [Compound 6], for which the inhibition at 10 µM was 3% in data set [1] (single concentration 10 µM); 14% in data set [2] (single concentration 10 µM); 0% in data set [4] (single concentration 10 µM); 0% in data set [5] (single concentration 10 µM); 3% in data set [7] (single concentration 10 µM); 11% in data set [8] (single concentration 10 µM). Moreover, in data set [8], the inhibitory constant (Ki) was determined as 5.4 ± 1.22 µM.
For the compound `O[C@@H]1[C@H](O)[C@@H]2C[C@@H]2[C@H]1n1cnc2c(NCc3cccc(Cl)c3)ncnc21` [Compound 7], the inhibition at 10 µM in data set [1] (single concentration 10 µM) came to 15%; in data set [2] (single concentration 10 µM) it was 26%; in data set [3] (single concentration 10 µM), 0%; in data set [4] (single concentration 10 µM), 0%; in data set [5] (single concentration 10 µM) it was 51%; in data set [7] (single concentration 10 µM) it was 2%. Further, in data set [8] (single concentration 10 µM), the inhibition at 10 µM was 51%. The Ki in data set [5] was determined as 1.74 µM; in data set [8] it was 5.36 ± 1.25 µM.
Consider `Fc1ccc(C#Cc2nc(NCc3cccc(Cl)c3)c3nc[nH]c3n2)cc1F` [Compound 8], for which the inhibition at 10 µM was 2% in data set [1] (single concentration 10 µM); 34% in data set [2] (single concentration 10 µM); 5% in data set [3] (single concentration 10 µM); 0% in data set [4] (single concentration 10 µM); 11% in data set [5] (single concentration 10 µM); 0% in data set [7] (single concentration 10 µM). Besides, the inhibition at 10 µM in data set [8] (single concentration 10 µM) turned out to be 83%. For the same compound, the Ki was determined as 2.19 ± 0.27 µM in data set [2] and 1.02 ± 0.69 µM in data set [8].
For `Clc1cccc(CNc2nc(Cl)nc3[nH]cnc23)c1` [Compound 9], the inhibition at 10 µM stood at 0% in data set [1] (single concentration 10 µM); 58% in data set [2] (single concentration 10 µM); 5% in data set [3] (single concentration 10 µM); 0% in data set [4] (single concentration 10 µM); 56% in data set [5] (single concentration 10 µM); 0% in data set [7] (single concentration 10 µM). The inhibition at 10 µM in data set [8] (single concentration 10 µM) was 87%. In addition, the Ki in data set [2] is 3 ± 0.51 µM; in data set [5], 3.32 ± 0.32 µM; in data set [8], 0.31 µM and 0.314 µM.
Consider `O[C@@H]1[C@H](O)[C@@H]2C[C@@H]2[C@H]1n1cnc2c(NC(C3CC3)C3CC3)nc(Cl)nc21` [Compound 10], for which the inhibition at 10 µM came out at 0% in data set [1] (single concentration 10 µM); 17% in data set [2] (single concentration 10 µM); 6% in data set [3] (single concentration 10 µM); 0% in data set [4] (single concentration 10 µM); 49% in data set [5]; 0% in data set [7] (single concentration 10 µM). The inhibition at 10 µM in data set [8] (single concentration 10 µM) was 0%. For the same compound, the affinity in data set [5], expressed as Ki, was 1.85 ± 0.46 µM. The “% inhibition at 10 µM (hERG functional assay)” value in data set [6] (single point 10 µM) amounted to 4.5 ± 2.4%.
